The record followed here is US8338663B2 (priority 2001, dated 2012).

Series [1] has as its system Botrytis cinerea isolated from grape and strawberry. Description: Effects of linalool and nerolidol on Botrytis mycelial growth. To be noted: day 7. The format is cell-based. The protocol:
Botrytis. Nerolidol and linalool were tested in a range of concentrations (10-5000 ppm) alone and in combination through the addition to Plich medium in 6 well plates (3 ml per well). In the case of comparing the application of nerolidol and linalool alone to the combination of the two compounds, 100 ppm of the single compound was for example compared to 50+50 ppm of the two compounds together. One 6 well plate per compound was used with two different concentrations in triplicate. All wells were inoculated with a mycelium plug of Botrytis cinerea isolated from grape and strawberry and incubated at 20° C. Each day the radial growth of the mycelium was measured. The mycelium growth of all Botrytis isolates was inhibited at concentrations above 10 ppm.

In series [2] the test system is Phytophthora infestans (isolate VK98014). Type of series: cell-based. To be noted: linalool versus farnesol.
Series [3] relates to Fusarium graminearum, Fusarium culmorum, F. verticillioides strain MRC826. The format is cell-based, Fusarium spp.
Series [4] deals with Phytophthora infestans (isolate VK98014). The format is cell-based.
Series [5] has as its system Fusarium verticillioides spores. Description: Spectrophotometric assay of Fusarium spore germination. The format is cell-based. To be noted: 10^5 spores/ml in Czapek Dox medium, day 3. The procedure: A spectrophotometric assay was used to monitor the onset of germination of Fusarium verticillioides spores (isolates: ITEM2282, MRC3235, MRC826, MRC826-2) in solution. The spores were diluted to a concentration of 10^5 spores/ml in Czapek Dox medium and mixed with 8-4000 ppm of linalool or nerolidol.

Series [6] relates to Phytophthora infestans. The format is cell-based. To be noted: for effect on mycelium growth at the lowest concentration: 0.002% (=20 ppm) in Plich medium, isolate VK98014, day 3 and 5; for effect on mycelium growth through the vapour phase: 0.2% added to the medium in the adjacent wells, isolate VK98014; for inhibition of mycelium growth: 2% and 0.2% (v/v) in Plich medium, isolate VK98014, day 3, 5 and 7.

The target of series [7] is T1, H64NORS linalool/nerolidol synthase, cultivated strawberry, recombinant his-tag purified, no targeting signal, SEQ ID NO: 19 (Fragaria x ananassa, UniProt P0CV94).
T1 sequence (P0CV94 1-519): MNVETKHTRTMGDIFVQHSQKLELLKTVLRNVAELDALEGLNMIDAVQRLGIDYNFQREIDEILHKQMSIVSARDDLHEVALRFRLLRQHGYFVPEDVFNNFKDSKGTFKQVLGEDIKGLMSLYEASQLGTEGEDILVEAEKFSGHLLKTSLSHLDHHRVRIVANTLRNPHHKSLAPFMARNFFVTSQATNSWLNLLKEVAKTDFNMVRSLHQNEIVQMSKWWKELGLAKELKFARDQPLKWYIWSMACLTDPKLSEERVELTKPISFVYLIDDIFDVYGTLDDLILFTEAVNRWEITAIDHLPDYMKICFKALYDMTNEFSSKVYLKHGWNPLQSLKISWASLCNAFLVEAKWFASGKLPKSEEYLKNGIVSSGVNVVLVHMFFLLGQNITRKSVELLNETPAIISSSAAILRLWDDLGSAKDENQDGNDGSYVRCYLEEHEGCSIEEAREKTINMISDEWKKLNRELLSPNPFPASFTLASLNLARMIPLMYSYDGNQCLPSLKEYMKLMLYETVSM
Description: Kinetic characterisation of the his-tag purified H64NORS-encoded protein. To be noted: read-out: Km for GPP. The format is biochemical, cultivated strawberry (Fragaria×ananassa Duch. cv. Elsanta).
Description: The pRSETB vector harboring the H64MUT or H64NORS was used to transform E. coli strain BL21 Gold DE3 pLysE (Stratagene) as described by the manufacturer. For bacterial expression typically 1 ml of overnight liquid culture grown at 37° C. in Luria Broth (LB) medium (10 g/l tryptone, 5 g/l yeast extract, 5 g/l NaCl) supplemented with 100 mg/l ampicillin was diluted 50 times in the same medium and grown until the OD600 reached 0.4 (at 37° C.). At this stage IPTG was added to a final concentration of 1 mM in order to induce expression. After overnight growth at 16° C. the cells were harvested by centrifugation at 4000×g for 15 min. […] The cells were further processed as described by the Ni-NTA Spin Columns manufacturers (QIAGEN) for protein purification under native conditions. First elute from the column (200 μl) was further used for enzymatic activity assays.
For determination of terpene synthase identity, the His-tag purified enzymes (prepared as described above under Example 4.6) were diluted 10-fold with buffer A containing 15 mM MOPSO (pH 7.0), 10% glycerol, 10 mM MgCl2, 1 mM sodium ascorbate and 2 mM DTT. […]
The samples were also analysed by GC-MS using a HP 5890 series II gas chromatograph equipped with an HP5-MS column (30 m×0.25 mm i.d., 0.25 μm df) and HP 5972A Mass Selective Detector (Hewlett-Packard). […]

The test system of series [8] is Phytophthora infestans. The format is in vivo. The conditions noted are these: cultivar Bintje, 0.05% (v/v) solution vacuum-infiltrated (ca. 0.0125% in leaves), 4 isolates, after 7 days.
Series [9] relates to Agrobacterium tumefaciens. Description: Transformation of Agrobacterium with H64NORS binary vector (nerolidol formed from endogenous FPP). The format is cell-based. To be noted: inferred: no colonies obtained after transformation of 2 strains with H64NORS.
Substrate in series [10]: CC(C)=CCC/C(C)=C/CC/C(C)=C/CO[P@@](=O)(O)OP(=O)(O)O
Description: purified protein, by the assay type. To be noted: pH 7.0.

With `C=CC(C)(O)CCC=C(C)C` (stereo not shown) [linalool], the “Relative effectiveness at very high concentrations” value in [1] (linalool or the combination) is on record as “most effective”. Also, the “Relative activity, inhibition of mycelium growth” value in [2] is “more active than farnesol”. For the same molecule, the “Relative effectiveness at very high concentrations” value in series [3] (nerolidol versus linalool, day 7) is given as “more effective”. The “Inhibition of mycelium growth at the lowest concentration” value in [4] (0.002% (=20 ppm) in Plich medium, day 3 and 5) was “active even at the lowest concentration”. In series [5] (8-4000 ppm), the “effect on germination of spores” value is “did not affect the germination of the spores at all”. Further, in series [6], the “effect on mycelium growth at the lowest concentration” value was “active”, the “effect on mycelium growth through the vapour phase” value is reported as “equally effective through the vapour phase as through the medium” and the “inhibition of mycelium growth” value is given as “inhibited completely”.
On to `CC(C)=CCC/C(C)=C/COP(=O)(O)OP(=O)(O)O` [GPP, geranyl diphosphate], for which, in series [7], the Km is over 50 µM.
`CC(C)=CCCC(C)=CCCC(C)=CCO` [Farnesol, reference compound]: the “inhibition of mycelium growth” value in series [6] is reported as “partial inhibition”.
As to `C=CC(C)(O)CCC=C(C)CCC=C(C)C` (stereo not shown) [nerolidol], the “Relative effectiveness at low concentrations” value in series [1] (nerolidol versus linalool) was “more effective than linalool”. Besides, the “effect on mycelium growth, lesion formation and sporulation in infiltrated potato leaves” value in [8] was “strongly inhibits mycelium growth, lesion formation and sporulation”. In addition, the “toxicity to Agrobacterium cells” value in [9] is listed as “highly toxic”. Besides, the “Relative effectiveness at low concentrations” value in series [3] (F. graminearum and MRC826, day 7) is “slightly more effective than linalool”. The “Relative effectiveness, inhibition of mycelium growth” value in series [4] (nerolidol versus linalool) is listed as “slightly more effective than linalool”. Further, the “concentrations showing strong inhibition of germination” value in [5] (8-4000 ppm tested) is on record as “above 250 ppm”. Further, in [6], the “effect on mycelium growth at the lowest concentration” value was “strong inhibitor of mycelium growth” and the “effect on mycelium growth through the vapour phase” value was “negligible”.

B1: H64NORS linalool/nerolidol synthase, cultivated strawberry, recombinant his-tag purified, no targeting signal, SEQ ID NO: 19 (Fragaria x ananassa) (protein)
chain: T1 sequence (P0CV94 1-519)
B1: in series [10], the Km worked out at 3.2 µM.

Usually Km stands for the concentration of substrate that gives half-maximal velocity.
